≈ marks a conversion by molar mass, not a printed value.
How the values were obtained:
Assay type in all cases: functional
Bacillus subtilis = test: Antibacterial activity against Bacillus subtilis ATCC 11774 after 18 to 20 hrs by two-fold microbroth dilution method
Staphylococcus aureus [1] = test: Antibacterial activity against Staphylococcus aureus ATCC 11632 after 18 to 20 hrs by two-fold microbroth dilution method
[2] = system: Staphylococcus epidermidis; test: Antibacterial activity against Staphylococcus epidermidis ATCC 12228 after 18 to 20 hrs by two-fold microbroth dilution method
Klebsiella aerogenes = test: Antibacterial activity against Enterobacter aerogenes ATCC 13048 after 18 to 20 hrs by two-fold microbroth dilution method
Escherichia coli = test: Antibacterial activity against Escherichia coli ATCC 25922 after 18 to 20 hrs by two-fold microbroth dilution method
Klebsiella pneumoniae = test: Antibacterial activity against Klebsiella pneumoniae ATCC 4352 after 18 to 20 hrs by two-fold microbroth dilution method
Pseudomonas aeruginosa = test: Antibacterial activity against Pseudomonas aeruginosa […] after 18 to 20 hrs by two-fold microbroth dilution method
Staphylococcus aureus [3] = test: Antibacterial activity against methicillin-resistant Staphylococcus aureus 198-1 after 18 to 20 hrs by two-fold microbroth dilution method
Staphylococcus aureus [4] = test: Antibacterial activity against methicillin-resistant Staphylococcus aureus 198-2 after 18 to 20 hrs by two-fold microbroth dilution method
Staphylococcus aureus [5] = test: Antibacterial activity against methicillin-resistant Staphylococcus aureus 198-3 after 18 to 20 hrs by two-fold microbroth dilution method
Aspergillus niger = test: Antifungal activity against Aspergillus niger 439 after 72 hrs by agar dilution method; details: Aspergillus niger, 439, 72 h
Candida albicans = test: Antifungal activity against Candida albicans ATCC 7754 after 72 hrs by agar dilution method; details: ATCC 7754, 72 h
[6] = Antifungal activity against Fusarium oxysporum M42 after 72 hrs by agar dilution method
[7] = Antifungal activity against Saccharomyces cerevisiae SH20 after 72 hrs by agar dilution method
Rattus norvegicus [8] = test: (§1) Antioxidant activity in CCL4-intoxicated Wistar albino rat assessed as liver cytosolic superoxide dismutase activity per mg protein at 100 mg/kg, ip administered for 7 consecutive days after DL-alpha-tocopherol acetate treatment followed by CCL4 dosing measured after 24 hrs by xanthine based assay (reference value: 5.27 +/- 0.22 U)
Rattus norvegicus [9] = test: as §1, with “glutathione peroxidase” for “superoxide dismutase”, “H2O2” for “xanthine”, “spectrophotometric analysis” for “assay”, “0.28” for “5.27”, “0.01” for “0.22”
Rattus norvegicus [10] = test: as §1, with “catalase” for “superoxide dismutase”, “H2O2” for “xanthine”, “220.15” for “5.27”, “11.43” for “0.22”

Row | SMILES | MIC (Bacillus subtilis) [µM] | MIC (Staphylococcus aureus [1]) [µM] | MIC [2] [µM] | MIC (Klebsiella aerogenes) [µM] | MIC (Escherichia coli) [µM] | MIC (Klebsiella pneumoniae) [µM] | MIC (Pseudomonas aeruginosa) [µM] | MIC (Staphylococcus aureus [3]) [µM] | MIC (Staphylococcus aureus [4]) [µM] | MIC (Staphylococcus aureus [5]) [µM] | MIC (Aspergillus niger) [µM] | MIC (Candida albicans) [µM] | MIC [6] [µM] | MIC [7] [µM] | Activity (Rattus norvegicus [8]) [U] | Activity (Rattus norvegicus [9]) [U] | Activity (Rattus norvegicus [10]) [U]
1 | C=CCN1C(=O)/C(=N/NC(=S)N[C@@H]2O[C@H](COC(C)=O)[C@@H](OC(C)=O)[C@H](OC(C)=O)[C@H]2OC(C)=O)c2ccccc21 | 200 (≈ 118 µg/mL) | 200 (≈ 118 µg/mL) | 200 (≈ 118 µg/mL) | 100 (≈ 59.1 µg/mL) | 100 (≈ 59.1 µg/mL) | 100 (≈ 59.1 µg/mL) | 100 (≈ 59.1 µg/mL) | 200 (≈ 118 µg/mL) | 200 (≈ 118 µg/mL) | 200 (≈ 118 µg/mL) | 200 (≈ 118 µg/mL) | 100 (≈ 59.1 µg/mL) | 200 (≈ 118 µg/mL) | 100 (≈ 59.1 µg/mL) | 9.91 | 0.27 | 357.47
2 | CC(=O)OC[C@H]1O[C@@H](NC(=S)N/N=C2/C(=O)N(CCc3ccccc3)c3ccccc32)[C@H](OC(C)=O)[C@@H](OC(C)=O)[C@@H]1OC(C)=O | 200 (≈ 131 µg/mL) | 200 (≈ 131 µg/mL) | 200 (≈ 131 µg/mL) | 100 (≈ 65.5 µg/mL) | 100 (≈ 65.5 µg/mL) | 100 (≈ 65.5 µg/mL) | 100 (≈ 65.5 µg/mL) | 200 (≈ 131 µg/mL) | 200 (≈ 131 µg/mL) | 200 (≈ 131 µg/mL) | 200 (≈ 131 µg/mL) | 400 (≈ 262 µg/mL) | 200 (≈ 131 µg/mL) | 400 (≈ 262 µg/mL) | 8.45 | 1.73 | 260.61
3 | CC(=O)OC[C@H]1O[C@@H](NC(=S)N/N=C2/C(=O)Nc3ccc(C)cc32)[C@H](OC(C)=O)[C@@H](OC(C)=O)[C@@H]1OC(C)=O | 25 (≈ 14.1 µg/mL) | 12.5 (≈ 7.06 µg/mL) | 12.5 (≈ 7.06 µg/mL) | 25 (≈ 14.1 µg/mL) | 25 (≈ 14.1 µg/mL) | 25 (≈ 14.1 µg/mL) | 25 (≈ 14.1 µg/mL) | 12.5 (≈ 7.06 µg/mL) | 12.5 (≈ 7.06 µg/mL) | 12.5 (≈ 7.06 µg/mL) | 100 (≈ 56.5 µg/mL) | 100 (≈ 56.5 µg/mL) | 100 (≈ 56.5 µg/mL) | 25 (≈ 14.1 µg/mL) | 5.91 | 1.7 | 258.47
4 | CC(=O)OC[C@H]1O[C@@H](NC(=S)N/N=C2/C(=O)Nc3c2cc(Br)cc3[N+](=O)[O-])[C@H](OC(C)=O)[C@@H](OC(C)=O)[C@@H]1OC(C)=O | 3.12 (≈ 2.1 µg/mL) | 6.25 (≈ 4.22 µg/mL) | 6.25 (≈ 4.22 µg/mL) | 25 (≈ 16.9 µg/mL) | 25 (≈ 16.9 µg/mL) | 25 (≈ 16.9 µg/mL) | 25 (≈ 16.9 µg/mL) | 6.25 (≈ 4.22 µg/mL) | 6.25 (≈ 4.22 µg/mL) | 6.25 (≈ 4.22 µg/mL) | 12.5 (≈ 8.43 µg/mL) | 12.5 (≈ 8.43 µg/mL) | 6.25 (≈ 4.22 µg/mL) | 12.5 (≈ 8.43 µg/mL) | 10.76 | 0.37 | 381.67
5 | CC(=O)OC[C@H]1O[C@@H](NC(=S)N/N=C2/C(=O)Nc3ccc(Cl)cc32)[C@H](OC(C)=O)[C@@H](OC(C)=O)[C@@H]1OC(C)=O | 6.25 (≈ 3.66 µg/mL) | 6.25 (≈ 3.66 µg/mL) | 6.25 (≈ 3.66 µg/mL) | 50 (≈ 29.2 µg/mL) | 50 (≈ 29.2 µg/mL) | 50 (≈ 29.2 µg/mL) | 50 (≈ 29.2 µg/mL) | 0.78 (≈ 0.456 µg/mL) | 0.78 (≈ 0.456 µg/mL) | 0.78 (≈ 0.456 µg/mL) | 12.5 (≈ 7.31 µg/mL) | 12.5 (≈ 7.31 µg/mL) | 12.5 (≈ 7.31 µg/mL) | 12.5 (≈ 7.31 µg/mL) | 10.2 | 0.31 | 390.63
6 | CC(=O)OC[C@H]1O[C@@H](NC(=S)N/N=C2/C(=O)Nc3ccc(F)cc32)[C@H](OC(C)=O)[C@@H](OC(C)=O)[C@@H]1OC(C)=O | 3.12 (≈ 1.77 µg/mL) | 3.12 (≈ 1.77 µg/mL) | 3.12 (≈ 1.77 µg/mL) | 50 (≈ 28.4 µg/mL) | 50 (≈ 28.4 µg/mL) | 50 (≈ 28.4 µg/mL) | 50 (≈ 28.4 µg/mL) | 1.56 (≈ 0.887 µg/mL) | 3.12 (≈ 1.77 µg/mL) | 1.56 (≈ 0.887 µg/mL) | 12.5 (≈ 7.11 µg/mL) | 6.25 (≈ 3.55 µg/mL) | 12.5 (≈ 7.11 µg/mL) | 6.25 (≈ 3.55 µg/mL) | 9.84 | 0.39 | 379.56

From ChEMBL document CHEMBL3872214, “Synthesis and evaluation of in vivo antioxidant, in vitro antibacterial, MRSA and antifungal activity of novel substituted isatin N-(2,3,4,6-tetra-O-acetyl-β-d-glucopyranosyl)thiosemicarbazones” (Eur J Med Chem, 2016)
